Measured values taken from the supplement of paper PMC10307832.

Tests used:
Assay in all cases: relative viability (nuclei count vs DMSO), 5 days (fraction); higher = more cells survive
Ibrutinib + Palbociclib = compound: C=CC(=O)N1CCC[C@@H](n2nc(-c3ccc(Oc4ccccc4)cc3)c3c(N)ncnc32)C1 [Ibrutinib] + CC(=O)c1c(C)c2cnc(Nc3ccc(N4CCNCC4)cn3)nc2n(C2CCCC2)c1=O [Palbociclib] (partner 0.5 µM)
Outline: (§1)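 Lung cancer cell lines in 1536-well plates got either a single drug or a fixed anchor-drug dose together with five library-drug doses (not always all listed) in √10 steps, by pin tool, on the day after seeding. Nuclei were counted after 5 days, and relative viability is the treated-to-vehicle ratio of nuclei counts. Values are medians of duplicate plates.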

BMX-IN-1 + Phenformin = compound: C=CC(=O)Nc1cc(-n2c(=O)ccc3cnc4ccc(-c5ccc(NS(C)(=O)=O)cc5)cc4c32)ccc1C [BMX-IN-1] + N=C(N)NC(=N)NCCc1ccccc1 [Phenformin] (partner 250 µM)
Outline: as §1

Ibrutinib + OSI-027 = compound: C=CC(=O)N1CCC[C@@H](n2nc(-c3ccc(Oc4ccccc4)cc3)c3c(N)ncnc32)C1 [Ibrutinib] + COc1cccc2cc(-c3nc([C@H]4CC[C@H](C(=O)O)CC4)n4ncnc(N)c34)[nH]c12 [OSI-027] (partner 0.5 µM)
Outline: as §1

BMX-IN-1 + Trametinib = compound: C=CC(=O)Nc1cc(-n2c(=O)ccc3cnc4ccc(-c5ccc(NS(C)(=O)=O)cc5)cc4c32)ccc1C [BMX-IN-1] + CC(=O)Nc1cccc(-n2c(=O)n(C3CC3)c(=O)c3c(Nc4ccc(I)cc4F)n(C)c(=O)c(C)c32)c1 [Trametinib] (partner 0.02 µM)
Outline: as §1

Row | Cell Line | relative viability (Ibrutinib + Palbociclib; first compound 0.005 µM) | relative viability (Ibrutinib + Palbociclib; first compound 0.01581 µM) | relative viability (Ibrutinib + Palbociclib; first compound 0.05 µM) | relative viability (Ibrutinib + Palbociclib; first compound 0.1581 µM) | relative viability (Ibrutinib + Palbociclib; first compound 0.5 µM) | relative viability (BMX-IN-1 + Phenformin; first compound 0.02 µM) | relative viability (BMX-IN-1 + Phenformin; first compound 0.2 µM) | relative viability (BMX-IN-1 + Phenformin; first compound 0.6325 µM) | relative viability (BMX-IN-1 + Phenformin; first compound 2 µM) | relative viability (Ibrutinib + OSI-027; first compound 0.005 µM) | relative viability (Ibrutinib + OSI-027; first compound 0.01581 µM) | relative viability (Ibrutinib + OSI-027; first compound 0.05 µM) | relative viability (Ibrutinib + OSI-027; first compound 0.1581 µM) | relative viability (Ibrutinib + OSI-027; first compound 0.5 µM) | relative viability (BMX-IN-1 + Trametinib; first compound 0.02 µM) | relative viability (BMX-IN-1 + Trametinib; first compound 0.2 µM) | relative viability (BMX-IN-1 + Trametinib; first compound 0.6325 µM) | relative viability (BMX-IN-1 + Trametinib; first compound 2 µM)
1 | 201T | 0.225 | 0.327 | 0.377 | 0.378 | 0.36 | 0.519 | 0.464 | 0.483 | 0.458 | 0.758 | 0.665 | 0.882 | 0.608 | 0.762 | 0.703 | 0.733 | 0.744 | 0.694
2 | NCI-H1437 | 0.336 | 0.307 | 0.307 | 0.235 | 0.374 | 0.281 | 0.342 | 0.334 | 0.326 | 0.718 | 0.846 | 0.941 | 0.913 | 0.878 | 0.677 | 0.489 | 0.605 | 0.614
3 | NCI-H1975 | 0.546 | 0.446 | 0.502 | 0.457 | 0.17 | 0.404 | 0.428 | 0.453 | 0.416 | 0.681 | 0.624 | 0.498 | 0.692 | 0.357 | 0.309 | 0.348 | 0.395 | 0.377
4 | RERF-LC-KJ | 1.12 | 0.915 | 0.928 | 1.09 | 0.931 | 0.439 | 0.408 | 0.42 | 0.416 | 0.516 | 0.441 | 0.497 | 0.579 | 0.489 | 0.967 | 0.897 | 0.867 | 0.909
